Results taken from a melting point compilation (Tetko et al.; mined from patent text by program, amines drawn as free bases though some values may be those of a salt).

Row | SMILES | melting point [°C]
1 | CC#Cc1ccc(NC(=O)c2cccnc2NCc2ccc(=O)[nH]c2)cc1C(F)(F)F | 211 to 218
2 | O=Cc1ccc(C2=NOC(c3cc(Cl)cc(Cl)c3)(C(F)(F)F)C2)cc1Cl (stereo not drawn) | 129 to 130
3 | COc1cc(CN2CCN(C(=O)c3ccc4c(c3)C(=O)c3ccccc3C4=O)CC2)cc(OC)c1OC | 158 to 160
4 | CSC(C)(C(=O)O)c1cccc(C2(c3ccccc3)OCCO2)c1 (stereo not drawn) | 118 to 120
5 | N[C@@H](Cc1ccc([N+](=O)[O-])cc1I)C(=O)O | > 200
6 | O=C(O)c1ccc(-c2coc(-c3ccc(C(F)(F)F)cc3)n2)cc1 | 294 to 295
7 | O=C1NCCN1c1ccc(S(=O)(=O)Nc2cccc(Br)c2)cc1 | 184 to 185
8 | CCCCN(CCCC)S(=O)(=O)N[C@@H](Cc1ccc(NC(=O)c2c(Cl)cncc2Cl)cc1)C(=O)O | 167
9 | CC(C)n1cc(-c2ccc(C=O)cc2)c2c(Cl)ncnc21 | 138 to 140
10 | CCC1c2cccn2-c2ccccc2N1S(=O)(=O)c1ccc(O)c(C)c1 (stereo not drawn) | 171 to 173
11 | CCNC(=O)c1c(Cl)cccc1[Si](C)(C)CBr | 98 to 99
12 | CS(=O)(=O)c1ccc(-c2nc(C(F)(F)F)sc2-c2ccc(F)cc2)cc1 | 150 to 151
13 | Nc1cc(CBr)nn1-c1c(Cl)cc(C(F)(F)F)cc1Cl | 220
14 | CCCS(=O)(=O)Nc1c(C)cc(OC(=O)NC)cc1C | 173 to 176
15 | CCOC(=O)c1cnn2c(-c3ccc(CC)cc3)ccnc12 | 101 to 103
16 | Cc1c(N2C[C@@H](N)[C@@H](C(F)F)C2)c(F)cc2c(=O)c(C(=O)O)cn([C@@H]3C[C@@H]3F)c12 | 214 to 216
17 | CSc1nn(-c2c(Cl)cc(Cl)cc2Cl)c(N(C)C)c1CC1C(=O)NC(=O)c2ccccc21 (stereo not drawn) | 186 to 187
18 | CN1CC(CNC(=N)NC(=O)c2ccccc2)CC2c3cccc4[nH]cc(c34)CC21 (stereo not drawn) | 190 to 191
19 | Cc1cccc(NC(=O)C=Cc2cn(C)nc2[N+](=O)[O-])n1 | 191 to 193
20 | CC1(C)Cc2c(c(N3CCOCC3)nc3sc4c(NCc5cnc6ccccc6c5)ncnc4c23)CO1 | 272 to 273
21 | O=C(Nc1ccc2c(c1)nc1n2CCC1)c1cc2cccnc2n1Cc1ccccc1 | 251 to 252
22 | CC(C(=O)O)=C(NC(=O)C(F)(F)F)c1ccccc1 | 140

Row | SMILES | melting point [°C]
23 | CCN1c2ncc(CCc3ccnc(C)c3)cc2C(=O)N(C)c2ccc(Cl)nc21 | 94 to 96
24 | COC(=O)c1ccc2c(=O)n(CC(C)C)c(CNC(=O)OC(C)(C)C)c(-c3ccc(Cl)cc3)c2c1 | 205 to 207
25 | CC1OC(OC2C=C(Br)C(=O)C(C)O2)C=C(Br)C1=O (stereo not drawn) | 125
26 | Nc1ccc2c(c1)CNC2 | 113 to 119
27 | COc1ccc2c(c1)C(=O)c1c-2c(Cl)nc2ccccc12 | 227 to 228
28 | N#Cc1cc([N+](=O)[O-])cc(C#N)c1O | 228 to 231
29 | COc1c[nH]c(=O)c([N+](=O)[O-])c1 | 179
30 | CC(C)c1cnn2c(NCc3ccccc3)nc(Cl)cc12 | 74 to 75
31 | Cc1ccc(-n2c(-c3sc(Nc4ccccc4)nc3C)nc3ccccc3c2=O)cc1 | 256 to 257
32 | Clc1ccc(OC(c2cccnc2)n2cncn2)c(Cl)c1 (stereo not drawn) | 75.5 to 78
33 | CC(C)c1ccc(-c2cnc(-c3cccc(C(=O)O)c3)s2)cc1 | 218 to 220
34 | COC(=O)c1c(Cl)ccc(C(=O)O)c1Cl | 183 to 185
35 | CON(C)CCN1C(=O)c2ccccc2C1=O | 130 to 132
36 | CC1(CN2CCN(C(=O)OCc3ccccc3)CC2)Cn2cc([N+](=O)[O-])nc2O1 (stereo not drawn) | 130 to 132
37 | Cc1cccc(C)c1N(C(=O)CCl)C1=CCCCC1 | 78
38 | COC(=O)CC(C#N)c1ccc(OC)c(OC2CCCC2)c1 (stereo not drawn) | 69 to 71
39 | Cc1nc(-n2cnn(CC3CC3(F)F)c2=O)sc1C(N)=O (stereo not drawn) | 273 to 275
40 | CC(=O)Oc1c(C)c(CCC2CC(O)CC(=O)O2)c2c(c1C)CC(C)(C)O2 (stereo not drawn) | 126 to 128
41 | COc1c(C)c(N2CCN(c3ccc(C)cc3)CC2)c(C)c2c1OC(C)(C)C2 | 150 to 152
42 | Cc1cc(O)cc2c1N(C)C1N(C)CCC21C (stereo not drawn) | 146 to 148
43 | N#Cc1ccc(NC(=O)c2cccc(OCc3ccc(F)c(F)c3)c2)cc1 | 173 to 174
44 | CCCCc1ncc(/C=C(\Cc2cccs2)C(=O)O)n1Cc1ccc(OC)c(C)c1 | 140 to 141

Now from value to compound:

Row | melting point [°C] | SMILES
45 | 187 to 189 | OCc1ccc(-c2ccc3nnn(Cc4ccc5ncccc5c4)c3n2)cc1
46 | 296 | Nc1cc2[nH]c(=O)oc2cc1NC(=O)C(=O)N1CCC(Cc2ccccc2)CC1
47 | 202 to 204 | COCOc1ccc(-c2ncc3ncc(N4CCCCC4=O)cc3n2)cc1
48 | 90 to 92 | CCOC(=O)C(=CNC1CC1)C(=O)c1cc(F)c(-n2cccc2)cc1F
49 | 245 to 247 | CC12CCC3c4c(O)cc(O)cc4CCC3C1CCC2=O (stereo not drawn)
50 | 170 to 172 | CCOC(=O)N(C)CC1CN(c2c(F)cc(C(=O)O)c(F)c2F)CCO1 (stereo not drawn)
51 | 195 to 197 | CCOC(=O)c1cc(C(=O)OCC)c(=O)[nH]c1C
52 | 46.5 to 48.5 | Cc1ccc(C)c(OCc2ccccc2CCl)c1
53 | 100 to 101 | CCOc1c(C(=O)OCC(C)(C)C(O)C(C)(C)C)oc2ccc(OC)cc12 (stereo not drawn)
54 | 206 to 210 | O=C(c1ccc(NS(=O)(=O)c2ccccc2Cl)cc1)N1Cc2cccn2Cc2ccccc21
55 | 155 to 156 | O=C(O)C(=O)CC(=O)c1cccn1Cc1ccccc1F
56 | 135 to 140 | O=CCCC12CC(c3ccccc31)c1ccccc12
57 | 208 to 210 | CNC(=O)N1CC(Oc2ccc(C(N)=O)cc2)C1
58 | 141 to 143 | CCN(CC)c1ccc(C2(c3ccc(N(CC)CC)cc3N(CC)CC)OC(=O)c3ccccc32)c(Cl)c1 (stereo not drawn)
59 | 142 to 144 | C/C(NC1CCCCC1)=C(\C#N)C(N)=S
60 | 217 to 220 | O=c1[nH]c2ncc(-c3ccc4[nH]cnc4c3)nc2n1CC1CCCCC1
61 | 152 to 154 | CC(C)(C)c1nc(C[C@@H]2CC[C@](C)(NCC(=O)N3C[C@@H](F)C[C@H]3C#N)C2(C)C)no1
62 | 149 to 151 | CCOC(=O)c1csc(/C=C/C(=O)c2ccc3c(c2)C2(C)C4(C)CCC(C4)C2(C)O3)c1 (stereo not drawn)
63 | 167 to 168 | COc1ccc(S(=O)(=O)Nc2ccccc2NC(=O)c2ccccc2)cc1
64 | 205 to 207 | O=C1c2ccc(O)cc2CCN1CCN1CCCC1
65 | 94.5 to 97 | N#CC1(c2ccc(Cl)cc2)CCC(=O)CC1
66 | 158 to 160 | CCOC(=O)CSCc1nc(NCc2ccc(OC)c(Cl)c2)c2c3c(sc2n1)CCCC3
67 | 170 to 171 | COc1ccc(-c2cc3cc(F)c(F)cc3[nH]2)cc1NCc1ccc([N+](=O)[O-])c(O)c1
68 | 66 to 68 | COc1ccc2c(c1)C(=O)C(Cc1ccccc1)CS2 (stereo not drawn)
69 | 134 to 138 | COc1ccccc1C(Cn1ccnc1)S(=O)(=O)c1ccc(C(=O)O)cc1 (stereo not drawn)
70 | 92 | Cc1ccc(-c2ccc(S(=O)(=O)N3c4ccccc4CC3C(=O)NCCOc3ccc(CC(=O)O)cc3)cc2C(F)(F)F)cc1 (stereo not drawn)
71 | 140 to 141 | Cc1ccccc1SCc1c(C(C)C)nc(C(C)C)c(CO)c1-c1ccc(F)cc1

Row | melting point [°C] | SMILES
72 | 180 | O=C(OC1C2CN(Cc3ccccc3)CC1CN(C(=O)c1ccc([N+](=O)[O-])cc1)C2)c1ccccc1 (stereo not drawn)
73 | 179 to 180 | c1ccc(Oc2cccc3c2CCN(Cc2c[nH]c4ncccc24)C3)cc1
74 | 302 to 304 | O=c1[nH]c(=O)n2c3c(cccc13)S(=O)c1ccc(C(F)(F)F)cc1-2 (stereo not drawn)
75 | 170 to 171 | CCCCc1c(C)c2ccc(OCCCN3CCC(NC(=O)c4ccccc4)CC3)cc2oc1=O
76 | 109 to 110 | CCOC(=O)C(=CNc1ccc(F)c(F)c1OCC1CN(Cc2ccccc2)CCN1Cc1ccccc1)C(=O)OCC (stereo not drawn)
77 | 84 to 86 | COC(=O)CS(=O)(=O)Nc1ccc(F)cc1C(F)(F)F
78 | 84 to 86 | CCCCCCCCCCCCCCSc1ccc(C(=O)O)o1
79 | 132 to 133 | CC(C(=O)O)N1CCC(C)(CS)C1=O (stereo not drawn)
80 | 111 to 112 | COC(=O)Cc1ccc2c(c1)C(=O)Cc1ccccc1C2
81 | 130 to 132 | O=C(O)CN(CC(=O)O)C(=O)C(=O)c1ccc(OCCCCCCCCCCCCOc2ccccc2)cc1
82 | 170 to 178 | COc1ccc(C=O)c2cc(C#N)oc12
83 | 66 to 68 | COc1ccc(CSc2cc(Cl)ccc2CN(C)C)cc1
84 | 179 to 183 | CCc1cc(OCc2ccc(-c3ccccc3-c3nnn(C(c4ccccc4)(c4ccccc4)c4ccccc4)n3)cc2)c2nc(OC(C)C)c(Cl)cc2n1
85 | 223 to 224 | CC1CC(=O)NN=C1c1ccc(NC(=O)OC(C)C2CC2)cc1 (stereo not drawn)
86 | 125 | Clc1ccc(C(c2ccccc2)(c2ccccc2)n2ccnc2)cc1
87 | 195 to 197 | CCOC(=O)c1ccc(-c2ncc(-c3ccc(Cl)cc3)o2)cc1
88 | 104 | O=C(Cc1ccccc1)Nc1ccccc1C(F)(F)F
89 | 147 to 148 | CCn1nc(-c2ccccc2)c(C(C)=O)c(Nc2cc(Br)cc3cccnc23)c1=O
90 | 150 to 155 | CN(C=O)CNC(=O)c1cc(Cl)nc(Cl)c1
91 | 190 to 191 | CC1(C)C(C(=O)NO)N(S(=O)(=O)c2ccc(-c3ccc(Br)cc3)cc2)CCS1(=O)=O (stereo not drawn)
92 | 86 | CN(CCO)C(=O)NC(CS)Cc1ccccc1 (single isomer, unassigned; (+))
93 | 105 to 107 | N#Cc1c[nH]cc1-c1ccccc1C(F)(F)F
94 | 193 | Cc1nc2n(c(=O)c1CCN1CCN(c3noc4cc(F)ccc34)CC1)CCS2
95 | 197 to 200 | O=C(O)c1ccc(C(=O)NOCCC23CC4CC(CC(C4)C2)C3)cc1
96 | 100 to 101 | CC(C)(C)c1cc(CCc2nnco2)cc(C(C)(C)C)c1O
97 | 143 to 147 | O=CC(CC(=O)O)NC(=O)C1CCCN2C(=O)CCC(NC(=O)c3ccccc3)C(=O)N12 (stereo not drawn)
98 | 251 to 253 | CCOC(=O)c1nnc2ccc(NC(=O)OCC(Cl)(Cl)Cl)cc2c1O
